Test results published in patent publication US5708007A, “2-(piperidin-4-yl, pyridin-4-yl and tetrahydropyridin-4-yl) benzofuran-7-ol and carbamate derivatives for treating memory dysfunction” (priority 1996, dated 1998).

What follows are compounds tested against T1, Brain AChE (Rattus norvegicus, UniProt P37136) (assay: biochemical). Conditions: rat striatum homogenate; acetylthiocholine 5 mM final; pH 7.2; 10 min preincubation at 37° C.; log-probit analysis; read-out: Inhibitory Concentration (μM) Brain AChE.
T1 construct: corpora striata dissected free, weighed and homogenized in 19 volumes; from tissue; host or cells: corpora striata of male Wistar rats, crude homogenate in 0.05M phosphate buffer
T1 sequence (P37136 32-614): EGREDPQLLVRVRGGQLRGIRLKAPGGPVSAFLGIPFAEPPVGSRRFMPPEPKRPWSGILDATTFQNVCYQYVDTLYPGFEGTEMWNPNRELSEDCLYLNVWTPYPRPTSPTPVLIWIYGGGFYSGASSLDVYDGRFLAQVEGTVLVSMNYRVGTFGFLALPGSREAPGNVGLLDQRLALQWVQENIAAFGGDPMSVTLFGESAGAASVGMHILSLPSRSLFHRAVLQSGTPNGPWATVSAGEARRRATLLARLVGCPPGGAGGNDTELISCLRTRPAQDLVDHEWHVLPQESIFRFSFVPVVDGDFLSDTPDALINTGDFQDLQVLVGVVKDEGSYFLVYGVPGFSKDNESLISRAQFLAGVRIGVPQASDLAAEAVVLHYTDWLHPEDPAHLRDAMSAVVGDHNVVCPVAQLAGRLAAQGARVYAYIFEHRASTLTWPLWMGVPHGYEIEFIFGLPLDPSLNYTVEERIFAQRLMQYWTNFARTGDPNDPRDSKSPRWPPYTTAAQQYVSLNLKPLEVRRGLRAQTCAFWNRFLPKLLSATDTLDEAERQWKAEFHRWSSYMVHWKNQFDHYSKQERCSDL
Design: species or system rat (male Wistar)
From the text: Cholinesterases are found throughout the body, both in the brain and in serum. However, only brain acetylcholinesterase (AChE) distribution is correlated with central cholinergic innervation. […] We have determined in vitro inhibition of acetylcholinesterase activity in rat striatum according to the method described below.
In Vitro Inhibition of Acetylcholinesterase Activity in Rat Striatum
The method described below was used in this invention for assaying anticholinesterase activity. This is a modification of the method of Ellman et al., Biochem. Pharmacol. 7, 88 (1961).
1. 0.05M Phosphate buffer, pH 7.2
(c) add (a) to (b) until pH reaches 7.2
4. A 2 mM stock solution of the test drug is made up in a suitable solvent and brought to volume with 0.5 mM DTNB (reagent 3). Drugs are serially diluted (1:10) such that the final concentration (in cuvette) is 10^-4 M and screened for activity. If active, IC50 values are determined from the inhibitory activity of subsequent concentrations.
Enzyme activity is measured with the Beckman DU-50 spectrophotometer. This method can be used for IC50 determinations and for measuring kinetic constants.
Reagents are added to the blank and sample cuvettes as follows:
This program also calculates the rate of absorbance change for each cuvette.
Substrate concentration is 10 mM diluted 1:2 in assay yielding final concentration of 5 mM.
IC50 values are calculated from log-probit analysis.
With `CNC(=O)Oc1cccc2cc(C3CCN(C)CC3)oc12` [2-(1-METHYL-4-PIPERIDINYL)-BENZOFURAN-7-YL METHYL CARBAMATE] the IC50 was 1.8 µM.
For `CN(C)C(=O)Oc1cccc2cc(C3CCNCC3)oc12` [2-(4-PIPERIDINYL)BENZOFURAN-7-YL DIMETHYL CARBAMATE HEMIFUMARATE], the IC50 was 1.9 µM.
For `CNC(=O)Oc1cccc2cc(-c3ccncc3)oc12` [2-(4-PYRIDINYL)BENZOFURAN-7-YL METHYL CARBAMATE], the IC50 was 1.2 µM.
